The source of these data is US20250235543A1, “MODIFIED PROTEINS AND PROTEIN DEGRADERS” (Cullgen (Shanghai), Inc., priority 2021, published 2025).

Molecules are shown by their SMILES.

One experiment concerns cyclin D1. Nature of the experiment: Cyclin D1 percentage degradation in Calu-1 cells (immunoblotting). The experiment is classed as cell-based. The note with it: 10 μM, 16 hours. The procedure, abridged: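 Cells were rinsed once in cold PBS and lysed in cold RIPA buffer containing protease and phosphatase inhibitors, with gentle agitation at 4° C. for 30 min. Lysates were spun at 13,000 rpm for 10 min at 4° C., protein was measured by BCA, and samples were boiled in Laemmli buffer at 99° C. for 5 min before SDS-PAGE immunoblotting.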
For orientation: In western blotting, separated proteins are transferred to a membrane and probed.

The target in the next experiment is T1, CDK4 (Homo sapiens, UniProt P11802).
T1 construct: endogenous in cells; host or cells: Calu-1
T1 sequence (P11802 2-303 limits assumed): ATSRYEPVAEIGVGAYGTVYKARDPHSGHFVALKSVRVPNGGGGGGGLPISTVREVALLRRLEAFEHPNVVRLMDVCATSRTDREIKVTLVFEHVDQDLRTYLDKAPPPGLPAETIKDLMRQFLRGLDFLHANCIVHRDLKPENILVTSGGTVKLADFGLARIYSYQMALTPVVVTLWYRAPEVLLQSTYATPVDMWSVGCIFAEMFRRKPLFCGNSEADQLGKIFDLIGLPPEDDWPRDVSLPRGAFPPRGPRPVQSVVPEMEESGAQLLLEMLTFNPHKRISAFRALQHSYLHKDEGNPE
T1 sequence (P24385 whole entry partner): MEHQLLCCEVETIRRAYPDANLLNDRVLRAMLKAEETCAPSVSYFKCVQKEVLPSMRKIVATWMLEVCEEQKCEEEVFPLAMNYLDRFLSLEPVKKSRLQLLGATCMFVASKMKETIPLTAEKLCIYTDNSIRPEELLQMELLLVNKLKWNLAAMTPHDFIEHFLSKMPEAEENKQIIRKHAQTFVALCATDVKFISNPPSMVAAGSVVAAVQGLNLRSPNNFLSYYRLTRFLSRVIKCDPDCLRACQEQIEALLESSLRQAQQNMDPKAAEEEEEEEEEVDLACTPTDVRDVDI
T1 sequence (Q16531 2-1140 limits assumed, further chain): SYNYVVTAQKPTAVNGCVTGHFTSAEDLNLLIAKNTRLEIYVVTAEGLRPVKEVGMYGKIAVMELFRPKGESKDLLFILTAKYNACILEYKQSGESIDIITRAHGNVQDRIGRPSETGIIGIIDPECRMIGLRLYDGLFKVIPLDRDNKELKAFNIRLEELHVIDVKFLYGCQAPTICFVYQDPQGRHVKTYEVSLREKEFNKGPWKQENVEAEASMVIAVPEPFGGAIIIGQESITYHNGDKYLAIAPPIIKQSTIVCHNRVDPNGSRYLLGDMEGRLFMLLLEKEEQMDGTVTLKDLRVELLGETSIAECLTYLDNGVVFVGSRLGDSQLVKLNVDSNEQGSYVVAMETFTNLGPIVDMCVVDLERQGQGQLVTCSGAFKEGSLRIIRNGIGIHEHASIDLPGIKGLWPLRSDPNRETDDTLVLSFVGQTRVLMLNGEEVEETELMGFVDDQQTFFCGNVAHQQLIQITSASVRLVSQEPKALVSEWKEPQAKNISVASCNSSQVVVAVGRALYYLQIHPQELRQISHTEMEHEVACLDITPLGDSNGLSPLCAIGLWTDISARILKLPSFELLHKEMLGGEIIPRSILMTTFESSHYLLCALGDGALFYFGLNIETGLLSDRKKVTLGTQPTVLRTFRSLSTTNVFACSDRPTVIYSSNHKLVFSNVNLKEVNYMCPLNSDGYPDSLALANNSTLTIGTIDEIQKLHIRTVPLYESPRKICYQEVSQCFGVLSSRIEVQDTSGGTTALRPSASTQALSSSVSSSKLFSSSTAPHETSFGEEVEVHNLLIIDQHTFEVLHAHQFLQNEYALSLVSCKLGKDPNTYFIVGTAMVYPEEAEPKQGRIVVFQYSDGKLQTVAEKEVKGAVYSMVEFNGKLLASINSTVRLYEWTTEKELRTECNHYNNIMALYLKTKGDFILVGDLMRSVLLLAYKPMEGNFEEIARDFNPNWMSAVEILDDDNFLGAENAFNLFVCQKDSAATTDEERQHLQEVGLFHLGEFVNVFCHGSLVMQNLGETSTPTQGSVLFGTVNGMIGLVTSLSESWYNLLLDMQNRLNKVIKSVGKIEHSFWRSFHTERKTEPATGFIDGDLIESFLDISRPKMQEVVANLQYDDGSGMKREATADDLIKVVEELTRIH
Nature of the experiment: CDK4 percentage degradation in Calu-1 cells (immunoblotting). The experiment is classed as cell-based. The note with it: Calu-1 cells, 10 μM, 16 hours; read-out: CDK4 Degradation (10 μM). The procedure, abridged:
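Cultured cells were rinsed once in cold PBS and lysed in cold RIPA buffer containing protease and phosphatase inhibitors, with gentle agitation at 4° C. for 30 min. Lysates were centrifuged at 13,000 rpm for 10 min at 4° C., and protein was quantified by BCA. Samples were then separated by SDS-PAGE, detected with ECL, and the CDK4 bands quantified in Image Lab.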

Turning to `Cc1nc(NC(=O)c2ccccc2NC(=O)CCCCCNC(=O)CN2CCN(Cc3ccc(Nc4ncc(F)c(-c5cc(F)c6nc(C)n(C(C)C)c6c5)n4)nc3)CC2)sc1C` [CPD-276, N-(4,5-Dimethylthiazol-2-yl)-2-(6-(2-(4-((6-((5-fluoro-4-(4-fluoro-1-isopropyl-2-methyl-1H-benzo[d]imidazol-6-yl)pyrimidin-2-yl)amino)pyridin-3-yl)methyl)piperazin-1-yl)acetamido)hexanamido)benzamide], the “CyclinD1 Degradation (10 μM)” value with cyclin D1 is on record as “D (protein percentage degradation < 30%)”. For the same compound, the inhibition at 10 µM at CDK4 was less than 30%.
In the case of `Cc1nc(NC(=O)c2ccccc2NC(=O)CCCCCCNC(=O)CN2CCN(Cc3ccc(Nc4ncc(F)c(-c5cc(F)c6nc(C)n(C(C)C)c6c5)n4)nc3)CC2)sc1C` [CPD-277, N-(4,5-Dimethylthiazol-2-yl)-2-(7-(2-(4-((6-((5-fluoro-4-(4-fluoro-1-isopropyl-2-methyl-1H-benzo[d]imidazol-6-yl)pyrimidin-2-yl)amino)pyridin-3-yl)methyl)piperazin-1-yl)acetamido)heptanamido)benzamide], the “CyclinD1 Degradation (10 μM)” value in the experiment on cyclin D1 was “D (protein percentage degradation < 30%)”. The inhibition at 10 µM on CDK4 is less than 30%.
Turning to `Cc1nc(NC(=O)c2ccccc2NC(=O)CCCCCCCNC(=O)CN2CCN(Cc3ccc(Nc4ncc(F)c(-c5cc(F)c6nc(C)n(C(C)C)c6c5)n4)nc3)CC2)sc1C` [CPD-278, N-(4,5-Dimethylthiazol-2-yl)-2-(8-(2-(4-((6-((5-fluoro-4-(4-fluoro-1-isopropyl-2-methyl-1H-benzo[d]imidazol-6-yl)pyrimidin-2-yl)amino)pyridin-3-yl)methyl)piperazin-1-yl)acetamido)octanamido)benzamide], in the experiment with cyclin D1, the “CyclinD1 Degradation (10 μM)” value is recorded as “D (protein percentage degradation < 30%)”. Moreover, the inhibition at 10 µM at CDK4 was less than 30%.
As for `Cc1nc(NC(=O)c2ccccc2NC(=O)CCCCCCCCNC(=O)CN2CCN(Cc3ccc(Nc4ncc(F)c(-c5cc(F)c6nc(C)n(C(C)C)c6c5)n4)nc3)CC2)sc1C` [CPD-279, N-(4,5-Dimethylthiazol-2-yl)-2-(9-(2-(4-((6-((5-fluoro-4-(4-fluoro-1-isopropyl-2-methyl-1H-benzo[d]imidazol-6-yl)pyrimidin-2-yl)amino)pyridin-3-yl)methyl)piperazin-1-yl)acetamido)nonanamido)benzamide], the “CyclinD1 Degradation (10 μM)” value in the experiment with cyclin D1 is recorded as “D (protein percentage degradation < 30%)”. Also, at CDK4, the inhibition at 10 µM was less than 30%.
Turning to `Cc1nc(NC(=O)c2ccccc2NC(=O)CCOCCNC(=O)CN2CCN(Cc3ccc(Nc4ncc(F)c(-c5cc(F)c6nc(C)n(C(C)C)c6c5)n4)nc3)CC2)sc1C` [CPD-280, N-(4,5-Dimethylthiazol-2-yl)-2-(3-(2-(2-(4-((6-((5-fluoro-4-(4-fluoro-1-isopropyl-2-methyl-1H-benzo[d]imidazol-6-yl)pyrimidin-2-yl)amino)pyridin-3-yl)methyl)piperazin-1-yl)acetamido)ethoxy)propanamido)benzamide], in the experiment on cyclin D1, the “CyclinD1 Degradation (10 μM)” value is on record as “D (protein percentage degradation < 30%)”. For the same compound, the inhibition at 10 µM at CDK4 is less than 30%.
Regarding `Cc1nc(NC(=O)c2ccccc2NC(=O)CCOCCOCCNC(=O)CN2CCN(Cc3ccc(Nc4ncc(F)c(-c5cc(F)c6nc(C)n(C(C)C)c6c5)n4)nc3)CC2)sc1C` [CPD-281, N-(4,5-Dimethylthiazol-2-yl)-2-(3-(2-(2-(2-(4-((6-((5-fluoro-4-(4-fluoro-1-isopropyl-2-methyl-1H-benzo[d]imidazol-6-yl)pyrimidin-2-yl)amino)pyridin-3-yl)methyl)piperazin-1-yl)acetamido)ethoxy)ethoxy)propanamido)benzamide], the “CyclinD1 Degradation (10 μM)” value with cyclin D1 is listed as “D (protein percentage degradation < 30%)”. The inhibition at 10 µM on CDK4 was less than 30%.
`Cc1nc(NC(=O)c2ccccc2NC(=O)CCOCCOCCOCCNC(=O)CN2CCN(Cc3ccc(Nc4ncc(F)c(-c5cc(F)c6nc(C)n(C(C)C)c6c5)n4)nc3)CC2)sc1C` [CPD-282, N-(4,5-Dimethylthiazol-2-yl)-2-(1-(4-((6-((5-fluoro-4-(4-fluoro-1-isopropyl-2-methyl-1H-benzo[d]imidazol-6-yl)pyrimidin-2-yl)amino)pyridin-3-yl)methyl)piperazin-1-yl)-2-oxo-6,9,12-trioxa-3-azapentadecan-15-amido)benzamide]: the “CyclinD1 Degradation (10 μM)” value in the experiment with cyclin D1 is recorded as “D (protein percentage degradation < 30%)”. Moreover, the inhibition at 10 µM at CDK4 was less than 30%.
With `Cc1nc(NC(=O)c2ccccc2NC(=O)CCOCCOCCOCCOCCNC(=O)CN2CCN(Cc3ccc(Nc4ncc(F)c(-c5cc(F)c6nc(C)n(C(C)C)c6c5)n4)nc3)CC2)sc1C` [CPD-283, N-(4,5-Dimethylthiazol-2-yl)-2-(1-(4-((6-((5-fluoro-4-(4-fluoro-1-isopropyl-2-methyl-1H-benzo[d]imidazol-6-yl)pyrimidin-2-yl)amino)pyridin-3-yl)methyl)piperazin-1-yl)-2-oxo-6,9,12,15-tetraoxa-3-azaoctadecan-18-amido)benzamide], the “CyclinD1 Degradation (10 μM)” value with cyclin D1 is “D (protein percentage degradation < 30%)”. Also, the inhibition at 10 µM on CDK4 was less than 30%.
Turning to `Cc1nc(NC(=O)c2ccccc2NC(=O)CCOCCOCCOCCOCCOCCNC(=O)CN2CCN(Cc3ccc(Nc4ncc(F)c(-c5cc(F)c6nc(C)n(C(C)C)c6c5)n4)nc3)CC2)sc1C` [CPD-284, N-(4,5-Dimethylthiazol-2-yl)-2-(1-(4-((6-((5-fluoro-4-(4-fluoro-1-isopropyl-2-methyl-1H-benzo[d]imidazol-6-yl)pyrimidin-2-yl)amino)pyridin-3-yl)methyl)piperazin-1-yl)-2-oxo-6,9,12,15,18-pentaoxa-3-azahenicosan-21-amido)benzamide], the “CyclinD1 Degradation (10 μM)” value in the experiment with cyclin D1 was “D (protein percentage degradation < 30%)”. In addition, on CDK4, the inhibition at 10 µM is less than 30%.
In the case of `Cc1nc(NC(=O)c2ccccc2NC(=O)CCOCCOCCOCCOCCOCCOCCNC(=O)CN2CCN(Cc3ccc(Nc4ncc(F)c(-c5cc(F)c6nc(C)n(C(C)C)c6c5)n4)nc3)CC2)sc1C` [CPD-285, N-(4,5-Dimethylthiazol-2-yl)-2-(1-(4-((6-((5-fluoro-4-(4-fluoro-1-isopropyl-2-methyl-1H-benzo[d]imidazol-6-yl)pyrimidin-2-yl)amino)pyridin-3-yl)methyl)piperazin-1-yl)-2-oxo-6,9,12,15,18,21-hexaoxa-3-azatetracosan-24-amido)benzamide], the “CyclinD1 Degradation (10 μM)” value in the experiment with cyclin D1 was “D (protein percentage degradation < 30%)”. For the same compound, the inhibition at 10 µM on CDK4 is less than 30%.
Consider `Cc1nc(NC(=O)c2ccccc2NC(=O)CNC(=O)CN2CCN(c3ccc(Nc4ncc5cc(C(=O)N(C)C)n(C6CCCC6)c5n4)nc3)CC2)sc1C` [CPD-286, 7-Cyclopentyl-2-((5-(4-(2-((2-((2-((4,5-dimethylthiazol-2-yl)carbamoyl)phenyl)amino)-2-oxoethyl)amino)-2-oxoethyl)piperazin-1-yl)pyridin-2-yl)amino)-N,N-dimethyl-7H-pyrrolo[2,3-d]pyrimidine-6-carboxamide], for which the “CyclinD1 Degradation (10 μM)” value in the experiment on cyclin D1 is reported as “A (protein percentage degradation >= 80%)”. The inhibition at 10 µM at CDK4 was 50 to 80%.
`Cc1nc(NC(=O)c2ccccc2NC(=O)CCNC(=O)CN2CCN(c3ccc(Nc4ncc5cc(C(=O)N(C)C)n(C6CCCC6)c5n4)nc3)CC2)sc1C` [CPD-287, 7-Cyclopentyl-2-((5-(4-(2-((3-((2-((4,5-dimethylthiazol-2-yl)carbamoyl)phenyl)amino)-3-oxopropyl)amino)-2-oxoethyl)piperazin-1-yl)pyridin-2-yl)amino)-N,N-dimethyl-7H-pyrrolo[2,3-d]pyrimidine-6-carboxamide]: in the experiment on cyclin D1, the “CyclinD1 Degradation (10 μM)” value was “A (protein percentage degradation >= 80%)”. Further, the inhibition at 10 µM at CDK4 lay in the range of 30 to 50%.
The corresponding values for `Cc1nc(NC(=O)c2ccccc2NC(=O)CCCNC(=O)CN2CCN(c3ccc(Nc4ncc5cc(C(=O)N(C)C)n(C6CCCC6)c5n4)nc3)CC2)sc1C` [CPD-288, 7-Cyclopentyl-2-((5-(4-(2-((4-((2-((4,5-dimethylthiazol-2-yl)carbamoyl)phenyl)amino)-4-oxobutyl)amino)-2-oxoethyl)piperazin-1-yl)pyridin-2-yl)amino)-N,N-dimethyl-7H-pyrrolo[2,3-d]pyrimidine-6-carboxamide] are “A (protein percentage degradation >= 80%)” and 50 to 80%.
In the case of `Cc1nc(NC(=O)c2ccccc2NC(=O)CCCCNC(=O)CN2CCN(c3ccc(Nc4ncc5cc(C(=O)N(C)C)n(C6CCCC6)c5n4)nc3)CC2)sc1C` [CPD-289, 7-Cyclopentyl-2-((5-(4-(2-((5-((2-((4,5-dimethylthiazol-2-yl)carbamoyl)phenyl)amino)-5-oxopentyl)amino)-2-oxoethyl)piperazin-1-yl)pyridin-2-yl)amino)-N,N-dimethyl-7H-pyrrolo[2,3-d]pyrimidine-6-carboxamide], the “CyclinD1 Degradation (10 μM)” value in the experiment with cyclin D1 was “A (protein percentage degradation >= 80%)”. Besides, at CDK4, the inhibition at 10 µM is 30 to 50%.
Regarding `Cc1nc(NC(=O)c2ccccc2NC(=O)CCCCCNC(=O)CN2CCN(c3ccc(Nc4ncc5cc(C(=O)N(C)C)n(C6CCCC6)c5n4)nc3)CC2)sc1C` [CPD-290, 7-Cyclopentyl-2-((5-(4-(2-((6-((2-((4,5-dimethylthiazol-2-yl)carbamoyl)phenyl)amino)-6-oxohexyl)amino)-2-oxoethyl)piperazin-1-yl)pyridin-2-yl)amino)-N,N-dimethyl-7H-pyrrolo[2,3-d]pyrimidine-6-carboxamide], the “CyclinD1 Degradation (10 μM)” value with cyclin D1 is “B (protein percentage degradation < 80%, and >= 50%)”. Also, the inhibition at 10 µM on CDK4 was in the range of 30 to 50%.
